Laboratory results: EP4800018A1, “PAN-KRAS INHIBITOR AND USE THEREOF IN MEDICINES” (Betta Pharmaceuticals Co., Ltd., priority 2023, dated 2025)
Where two headings read alike, the source gives them in different places.

How the values were obtained:
[1] = molecular target: T1, KRAS G12V-cRAF (Homo sapiens, UniProt P01116, G12V); test: Cellular KRAS G12V-cRAF Binding Inhibition Assay (NanoBRET, AD293 stable cells); assay type: cell-based; details: 3 h incubation, read-out: NanoBRET KRAS G12V
T1 construct: expressed in transfected cells
T1 sequence (P01116 1-188 isoform P01116-2 G12V): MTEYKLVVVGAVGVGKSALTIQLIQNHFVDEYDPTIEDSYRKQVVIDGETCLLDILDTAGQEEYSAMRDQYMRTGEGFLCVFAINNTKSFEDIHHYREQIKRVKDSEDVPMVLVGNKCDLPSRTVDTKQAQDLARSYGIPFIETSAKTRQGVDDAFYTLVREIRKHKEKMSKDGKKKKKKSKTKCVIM
Outline: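 Binding measured as BRET between NanoLuc and HaloTag-bound NanoBRET 618 ligand (added overnight) in stably expressing AD293 cells. Signals were converted to percent inhibition against max and blank wells and fitted for IC50.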

[2] = PK Study of Compounds in Rats; assay type: in vivo, Male SD rats; details: mean; for AUC(0-t): read-out: AUC0-t; for Cmax: read-out: C0/Cmax
Protocol: The test compound was mixed with the vehicle (10% DMSO/5% Solutol/85% physiological saline), vortexed and sonicated to prepare a clear 0.5 mg/mL intravenous injection solution. The test compound was mixed with the vehicle (20% PEG400/10% Solutol/70% pH 4.5 acetate buffer), vortexed and sonicated to prepare a clear 1 mg/mL oral solution. Male SD rats aged 6 to 7 weeks were selected and administered the test compound via intravenous (IV) and oral (PO) routes, respectively. Whole blood samples were collected at 5 min, 15 min, 30 min, 1 h, 2 h, 4 h, 7 h, and 24 h for the intravenous route, and at 15 min, 30 min, 1 h, 2 h, 4 h, 7 h, and 24 h for the oral route. Drug concentrations were analyzed by LC-MS/MS method, and pharmacokinetic parameters were calculated using Phoenix WinNonlin software (Pharsight, USA).

[3] = male, SD, rat, whole blood, IV 1 mg/kg (n=3)
[4] = male, SD, rat, whole blood, PO 10 mg/kg (n=3)

- IC50 [1]: 5.4 nM
- F ([2]; PO 10 mg/kg vs IV 1 mg/kg (n=3)): 19.5
- clearance [2, 3]: 1.93 mL/min/kg
- half-life [2, 3]: 8.4 h
- AUC(0-t) [2, 3]: 7510 ng·h/mL
- Cmax [2, 3]: 4250 ng/mL
- Vd ([2]; male, SD, rat, whole blood, IV 1 mg/kg (n=3), read-out: Vss): 1.2 L/kg
- AUC(0-t) [2, 4]: 14600 ng·h/mL
- Cmax [2, 4]: 1370 ng/mL
- Tmax ([2]; male, SD, rat, whole blood, PO 10 mg/kg (n=3), read-out: Tmax): 4 h
SMILES: CC1OCCCn2c(c3c4cc(ccc42)-c2csc(n2)CC(NC(=O)C2C(C)C2C)C(=O)N2NC(C(=O)OCC(C)(C)C3)C3CC2C3)-c2cc(N3CCN(C)CC3)cnc21 [Example 186, (1r,2R,3S)-2,3-dimethyl-N-((1^5S,6^4S,4S,Z)-1^5,10,10-trimethyl-1^2-(4-methylpiperazin-1-yl)-5,7-dioxo-1^8,1^9-dihydro-1^5H,1^7H-8-oxa-6^2,6^3-diaza-1(13,15)-pyrido[3',2':7,8][1,5]oxazonino[5,6-a]indola-2(4,2)-thiazola-6(2,4)-bicyclo[3.1.1]heptanacycloundecaphane-4-yl)cyclopropane-1-carbox amide]
